These results are taken from paper PMC6438784 (Saudi Pharmaceutical Journal : SPJ, 2019).

Data set [1] concerns UGT1A6. The note with it: UGT1A6 inhibition; ref Sridar et al., 2004; cited from earlier work.
Data set [2] has as its target T1, CYP2C8 (Homo sapiens, UniProt P10632).
T1 sequence (P10632 1-490): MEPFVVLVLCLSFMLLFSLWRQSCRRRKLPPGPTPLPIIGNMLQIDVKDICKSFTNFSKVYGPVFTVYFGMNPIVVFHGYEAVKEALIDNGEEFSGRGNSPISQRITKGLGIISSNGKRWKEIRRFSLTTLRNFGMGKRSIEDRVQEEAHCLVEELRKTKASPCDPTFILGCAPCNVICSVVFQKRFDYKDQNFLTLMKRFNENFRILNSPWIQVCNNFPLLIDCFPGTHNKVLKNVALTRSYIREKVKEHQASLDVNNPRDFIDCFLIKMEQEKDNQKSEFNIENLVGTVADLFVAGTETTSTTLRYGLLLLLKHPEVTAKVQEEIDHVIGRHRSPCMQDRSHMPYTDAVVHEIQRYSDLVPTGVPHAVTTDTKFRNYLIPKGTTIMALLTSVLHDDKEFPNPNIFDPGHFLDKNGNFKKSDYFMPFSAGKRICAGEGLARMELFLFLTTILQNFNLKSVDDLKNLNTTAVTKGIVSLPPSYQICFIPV
As to the kind of experiment: CYP2C8 inhibition in pooled HLM, amodiaquine to desethylamodiaquine. In kind it is in vitro ADME. The note with it: for IC50: amodiaquine.

The target of data set [3] is T1, CYP2C8. In words: CYP2C8 inhibition in pooled HLM, pioglitazone to hydroxypioglitazone. It is filed as in vitro ADME.
The target in data set [4] is T2, UGT1A1 (Homo sapiens, UniProt P22309).
T2 sequence (P22309 26-533): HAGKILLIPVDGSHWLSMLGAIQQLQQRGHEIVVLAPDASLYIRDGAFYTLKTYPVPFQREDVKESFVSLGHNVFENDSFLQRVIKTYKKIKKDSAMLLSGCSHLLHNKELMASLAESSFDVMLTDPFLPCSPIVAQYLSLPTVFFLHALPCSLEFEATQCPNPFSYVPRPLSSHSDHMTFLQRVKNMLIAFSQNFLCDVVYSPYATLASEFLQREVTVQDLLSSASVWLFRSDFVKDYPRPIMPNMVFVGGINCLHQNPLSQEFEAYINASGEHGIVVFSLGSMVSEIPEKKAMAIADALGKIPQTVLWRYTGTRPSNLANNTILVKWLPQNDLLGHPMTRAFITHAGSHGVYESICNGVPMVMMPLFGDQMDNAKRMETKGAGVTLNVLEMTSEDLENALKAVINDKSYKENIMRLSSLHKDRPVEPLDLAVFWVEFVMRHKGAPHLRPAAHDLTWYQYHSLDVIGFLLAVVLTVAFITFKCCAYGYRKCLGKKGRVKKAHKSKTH
As to the kind of experiment: UGT1A1 inhibition in HLM, β-estradiol glucuronidation. In kind it is in vitro ADME.

Data set [5] has as its target T3, UGT1A6 (Homo sapiens, UniProt P19224).
T3 sequence (P19224 27-532): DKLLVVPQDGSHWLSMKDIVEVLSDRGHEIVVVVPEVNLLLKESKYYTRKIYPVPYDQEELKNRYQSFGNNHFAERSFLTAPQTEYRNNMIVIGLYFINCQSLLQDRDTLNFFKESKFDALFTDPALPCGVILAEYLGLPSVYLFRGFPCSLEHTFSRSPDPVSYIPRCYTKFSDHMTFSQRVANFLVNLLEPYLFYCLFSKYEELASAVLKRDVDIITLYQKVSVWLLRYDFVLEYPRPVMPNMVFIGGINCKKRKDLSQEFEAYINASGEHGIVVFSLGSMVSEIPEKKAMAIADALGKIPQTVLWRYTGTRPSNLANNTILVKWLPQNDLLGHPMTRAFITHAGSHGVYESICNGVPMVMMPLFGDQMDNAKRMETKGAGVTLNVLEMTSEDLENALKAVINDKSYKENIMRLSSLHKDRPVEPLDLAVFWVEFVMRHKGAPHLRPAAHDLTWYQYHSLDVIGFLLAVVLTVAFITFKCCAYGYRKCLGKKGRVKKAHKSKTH
In words: UGT1A6 inhibition in HLM, serotonin glucuronidation. In kind it is in vitro ADME. The note with it: for IC50: HLM.

Data set [6] deals with T4, UGT1A9 (Homo sapiens, UniProt O60656).
T4 sequence (O60656 26-530): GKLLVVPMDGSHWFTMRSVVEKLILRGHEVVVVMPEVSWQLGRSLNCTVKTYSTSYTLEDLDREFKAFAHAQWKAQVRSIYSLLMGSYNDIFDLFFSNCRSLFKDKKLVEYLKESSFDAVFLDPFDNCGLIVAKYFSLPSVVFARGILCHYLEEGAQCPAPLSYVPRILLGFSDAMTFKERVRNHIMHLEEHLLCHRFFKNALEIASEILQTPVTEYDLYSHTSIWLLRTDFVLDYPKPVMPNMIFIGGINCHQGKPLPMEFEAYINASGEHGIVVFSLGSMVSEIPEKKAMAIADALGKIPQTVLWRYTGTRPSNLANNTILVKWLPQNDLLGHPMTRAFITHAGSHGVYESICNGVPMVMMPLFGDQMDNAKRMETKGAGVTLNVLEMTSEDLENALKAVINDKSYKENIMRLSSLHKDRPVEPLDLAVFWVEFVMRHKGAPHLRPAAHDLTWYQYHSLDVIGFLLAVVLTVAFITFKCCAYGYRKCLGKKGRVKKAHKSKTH
In words: UGT1A9 inhibition in HLM, mycophenolic acid glucuronidation. It is filed as in vitro ADME.

For data set [7], the system named is UGT1A8/10. In words: UGT1A8/10 inhibition in HIM, mycophenolic acid glucuronidation. It is filed as in vitro ADME, human.
The conditions of data set [8]: rats, ref Yeo et al., 2013, cited from earlier work.
For data set [9] the following is noted: ref Riche et al., 2013, cited from earlier work.
The conditions of data set [10]: rats; ref Kapetanovic et al., 2011; cited from earlier work.
Setting [11] is: initial screening, RDI 250 mg / rough IC50.

Molecules are shown by their SMILES. Like-named read-outs stand apart in the source and are kept apart here.

As a reminder, the IC50 is the concentration that gives 50% inhibition. In general, inhibition refers to the drop in the measured response relative to a control, in per cent. A lower inhibition goes with a response near the control.

Regarding `COc1cc(C2Oc3cc([C@H]4Oc5cc(O)cc(O)c5C(=O)[C@@H]4O)ccc3OC2CO)ccc1O` (some centres unmarked) [Silybin], in data set [1], the IC50 was 28 µM.

In the case of `COc1cc(/C=C/c2ccc(O)cc2)cc(OC)c1` [pterostilbene], the IC50 in [2] (Precise IC50, confirmatory experiment, HLM, mean ± SE) is 3.12 µM; in data set [2] (Rough IC50, initial screening, pooled HLM, desethylamodiaquine formation, mean ± standard error), 26.9 ± 5.6 µM; in data set [3], 17.9 ± 2.2 µM; in data set [4] (Rough IC50, initial screening, HLM, β-estradiol), greater than 500 µM; in data set [5] (Precise IC50, confirmatory experiment, serotonin, mean ± SE), 15 µM; in [5] (Rough IC50, initial screening, serotonin glucuronide formation, mean ± standard error) it was 26.7 ± 40.7 µM. Besides, the IC50 in data set [6] is greater than 100 µM. For the same compound, the V/D index in [2] (setting [11]) is on record as 36.30 L/dose; in data set [4] (setting [11]) it was less than 2 L/dose; in data set [5] (setting [11]), 36.50 L/dose; in data set [6] (setting [11]) it was 3.89 L/dose; in [7] (setting [11]), 10.53 L/dose. Moreover, the inhibition at 30 min was less than 50% in [4] (human, human liver microsomes, pH 7.4, probe β-estradiol (25 μM)) and less than 50% in [6] (human, human liver microsomes, pH 7.4, probe mycophenolic acid (240 μM)). In data set [7] (human, human intestinal microsomes, pH 7.4, probe mycophenolic acid (70 μM)), this compound yielded an IC50 at 30 min of 92.7 ± 18.4 µM. In addition, in [7] (initial screening), the VDI is 10.5 L. Moreover, the “Decrease of bioavailability by fasting” value in [8] (fasting) is listed as roughly 55%. Moreover, the Clearance result in [8] (intravenous dose of 2.5 mg/kg) is reported as “rapid”. Besides, in [8] (oral aqueous solution), the Bioavailability was 15%. Further, the “Effect on blood pressure” value in data set [9] (250 mg daily dose) is listed as “reduction in blood pressure”. Also, the “Safety of long term use” value in data set [9] (humans, 250 mg/day) is given as “safe”.

Regarding `Oc1ccc(/C=C/c2cc(O)cc(O)c2)cc1` [resveratrol], in [10], the Bioavailability was 20%.
